Patent publication US11453647B2, “Benzimidazole derivatives as adenosine receptor antagonists” (Merck Patent GmbH, priority 2017, dated 2022)

Key:
Assay type in all cases: cell-based
human A1 receptor = target: T1, human A1 receptor (Homo sapiens, UniProt P30542); test: functional cAMP (HTRF) assay, recombinant CHO cells expressing human A1 receptor, forskolin, agonist CPA
T1 construct: expressed in transfected cells; host or cells: CHO
T1 sequence (P30542 1-326): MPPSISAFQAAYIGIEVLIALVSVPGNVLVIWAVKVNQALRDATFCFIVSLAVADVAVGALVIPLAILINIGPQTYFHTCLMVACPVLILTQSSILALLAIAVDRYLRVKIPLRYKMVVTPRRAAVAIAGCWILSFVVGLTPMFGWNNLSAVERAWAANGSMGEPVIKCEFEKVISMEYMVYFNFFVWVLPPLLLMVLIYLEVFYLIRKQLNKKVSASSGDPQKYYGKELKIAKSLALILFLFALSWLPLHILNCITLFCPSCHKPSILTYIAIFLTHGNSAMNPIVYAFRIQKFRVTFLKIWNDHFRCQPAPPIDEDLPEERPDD
Protocol: (§1) The functional activities of human A2A, A2B, A1 and A3 receptors were determined by quantification of cAMP, being the second messenger for adenosine receptors.
(§2) For human A1 and A3 receptors, recombinant CHO cells, expressing either A1 or A3-receptor, were used. As both receptors couple to Gi proteins, the assay protocol was adapted:
(§3) Cells were seeded into 384-well plates, forskolin, test compounds and agonists (CPA for A1- and IB-MECA for A3-receptor) were added. After 30 min incubation, HTRF reagents (cAMP dynamic 2, Cis Bio) were added and the cellular cAMP levels were determined using the ENVISION (Perkin Elmer) plate reader. Obtained raw data were normalized against the inhibitor control and the neural control (DMSO) and the normalized data were fitted using GeneData software.

human A2A receptor = target: T2, human A2A receptor (Homo sapiens, UniProt P29274); test: functional cAMP (HTRF) assay, recombinant HEK293 cells expressing human A2A receptor, agonist NECA
T2 construct: expressed in transfected cells; host or cells: HEK293
T2 sequence (P29274 whole entry): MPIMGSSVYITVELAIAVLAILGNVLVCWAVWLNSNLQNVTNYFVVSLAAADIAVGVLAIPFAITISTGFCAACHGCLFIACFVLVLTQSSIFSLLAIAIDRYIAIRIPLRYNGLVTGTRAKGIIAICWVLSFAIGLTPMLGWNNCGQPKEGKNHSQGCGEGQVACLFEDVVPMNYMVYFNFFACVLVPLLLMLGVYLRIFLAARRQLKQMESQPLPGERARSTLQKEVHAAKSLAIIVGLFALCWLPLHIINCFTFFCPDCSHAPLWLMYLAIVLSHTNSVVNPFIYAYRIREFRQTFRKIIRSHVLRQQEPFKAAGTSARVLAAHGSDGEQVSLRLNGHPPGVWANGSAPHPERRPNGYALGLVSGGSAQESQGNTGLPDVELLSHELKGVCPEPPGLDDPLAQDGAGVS

A2B receptors = target: T3, A2B receptors (Homo sapiens, UniProt P29275); test: functional cAMP (HTRF) assay, recombinant HEK293 cells expressing human A2B receptor, agonist NECA; design: expressed in transfected cells; host or cells: HEK293
T3 sequence (P29275 1-332): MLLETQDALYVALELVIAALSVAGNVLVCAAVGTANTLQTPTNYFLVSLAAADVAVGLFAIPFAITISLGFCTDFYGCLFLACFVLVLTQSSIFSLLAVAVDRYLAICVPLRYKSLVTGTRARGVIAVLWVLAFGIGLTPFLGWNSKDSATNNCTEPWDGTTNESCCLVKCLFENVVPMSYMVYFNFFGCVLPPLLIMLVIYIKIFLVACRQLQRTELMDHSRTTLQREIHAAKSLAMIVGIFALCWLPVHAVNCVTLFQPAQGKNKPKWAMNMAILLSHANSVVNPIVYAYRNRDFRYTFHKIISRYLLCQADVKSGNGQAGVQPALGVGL

human A3 receptor = target: T4, human A3 receptor (Homo sapiens, UniProt P0DMS8); test: functional cAMP (HTRF) assay, recombinant CHO cells expressing human A3 receptor, forskolin, agonist IB-MECA
T4 construct: expressed in transfected cells; host or cells: CHO
T4 sequence (P0DMS8 1-318): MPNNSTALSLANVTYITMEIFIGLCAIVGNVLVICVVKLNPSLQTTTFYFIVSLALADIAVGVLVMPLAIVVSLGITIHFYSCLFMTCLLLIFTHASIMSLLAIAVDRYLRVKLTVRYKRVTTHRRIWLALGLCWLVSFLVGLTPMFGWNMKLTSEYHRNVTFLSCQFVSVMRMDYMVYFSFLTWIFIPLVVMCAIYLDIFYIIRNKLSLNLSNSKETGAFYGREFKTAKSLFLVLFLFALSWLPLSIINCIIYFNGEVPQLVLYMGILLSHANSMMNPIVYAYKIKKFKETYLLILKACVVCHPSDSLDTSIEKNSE
Protocol: as §1, §2, §3

Compound | IC50 (human A1 receptor) | IC50 (human A2A receptor) | IC50 (A2B receptors) | IC50 (human A3 receptor)
COc1ccc(-c2ccccc2)c2nc(NC(=O)c3ccc(CCl)cc3)[nH]c12 [compound 10, 4-Chloromethyl-N-(7-methoxy-4-phenyl-1H-benzoimidazol-2-yl)-benzamide] | > 1 µM | < 0.01 µM | < 0.1 µM | –
COc1ccc(-c2cnn(C)c2)c2nc(NC(=O)c3ccnc(N4CCC(C)(O)C4)c3)[nH]c12 (centres unmarked) [compound 30, 2-(3-Hydroxy-3-methyl-pyrrolidin-1-yl)-N-[7-methoxy-4-(1-methyl-1H-pyrazol-4-yl)-1H-benzoimidazol-2-yl]-isonicotinamide] | – | < 0.01 µM | > 1 µM | < 1 µM
COc1ccc(-c2ccncc2)c2nc(NC(=O)c3ccc(CN(C)C)cc3)[nH]c12 [compound 89, 4-[(dimethylamino)methyl]-N-[7-methoxy-4-(pyridin-4-yl)-1H-1,3-benzodiazol-2-yl]benzamide] | – | < 0.1 µM | < 1 µM | > 1 µM
COc1ccc(C2CCOCC2)c2nc(NC(=O)c3ccnc(N4CCC(C)(O)CC4)c3)[nH]c12 [compound 118, 2-(4-hydroxy-4-methylpiperidin-1-yl)-N-[7-methoxy-4-(oxan-4-yl)-1H-1,3-benzodiazol-2-yl]pyridine-4-carboxamide] | > 1 µM | < 0.01 µM | > 1 µM | –
COc1ccc(-c2cnn(C)c2)c2nc(NC(=O)c3cncs3)[nH]c12 [compound 219, N-[7-methoxy-4-(1-methyl-1H-pyrazol-4-yl)-1H-1,3-benzodiazol-2-yl]-1,3-thiazole-5-carboxamide] | < 1 µM | < 0.01 µM | < 0.01 µM | –
COc1ccc(C2CCOCC2)c2nc(NC(=O)c3cnc(C)s3)[nH]c12 [compound 227, N-[7-methoxy-4-(oxan-4-yl)-1H-1,3-benzodiazol-2-yl]-2-methyl-1,3-thiazole-5-carboxamide] | > 1 µM | < 0.01 µM | < 0.1 µM | –
COc1ccc(C2CCOCC2)c2nc(NC(=O)NCc3nccs3)[nH]c12 [compound 228, 3-[7-methoxy-4-(oxan-4-yl)-1H-1,3-benzodiazol-2-yl]-1-[(1,3-thiazol-2-yl)methyl]urea] | > 1 µM | < 0.1 µM | – | –
COc1ccc(-c2ccccc2F)c2nc(NC(=O)c3cnn(C)c3)[nH]c12 [compound 243, N-[4-(2-fluorophenyl)-7-methoxy-1H-1,3-benzodiazol-2-yl]-1-methyl-1H-pyrazole-4-carboxamide] | < 1 µM | < 0.01 µM | < 0.01 µM | –
COc1ccc(C2CCOCC2)c2nc(NC(=O)c3ccc(N4C(=O)CCC4=O)cc3)[nH]c12 [compound 250, 4-(2,5-dioxopyrrolidin-1-yl)-N-[7-methoxy-4-(oxan-4-yl)-1H-1,3-benzodiazol-2-yl]benzamide] | – | < 0.01 µM | < 0.1 µM | > 1 µM
COc1ccc(-c2ccccc2)c2nc(NC(=O)c3cncn3C)[nH]c12 [compound 254, N-(7-methoxy-4-phenyl-1H-1,3-benzodiazol-2-yl)-1-methyl-1H-imidazole-5-carboxamide] | < 1 µM | < 0.01 µM | < 0.01 µM | –
COc1ccc(-c2ccccc2)c2nc(NC(=O)c3cncs3)[nH]c12 [compound 256, N-(7-methoxy-4-phenyl-1H-1,3-benzodiazol-2-yl)-1,3-thiazole-5-carboxamide] | < 1 µM | < 0.01 µM | < 0.01 µM | –
COc1ccc(-c2ccccc2)c2nc(NC(=O)c3cnc(C)s3)[nH]c12 [compound 257, N-(7-methoxy-4-phenyl-1H-1,3-benzodiazol-2-yl)-2-methyl-1,3-thiazole-5-carboxamide] | < 1 µM | < 0.01 µM | < 0.01 µM | –
COc1cc(F)c(C2CCOCC2)c2nc(NC(=O)c3ccc(C(=O)N(C)C)cc3)[nH]c12 [compound 277, N4-[5-fluoro-7-methoxy-4-(oxan-4-yl)-1H-1,3-benzodiazol-2-yl]-N1,N1-dimethylbenzene-1,4-dicarboxamide] | – | < 0.1 µM | < 0.1 µM | > 1 µM
COc1ccc(-c2ccccc2)c2nc(NC(=O)c3cnc4cccnn34)[nH]c12 [compound 288, N-(7-methoxy-4-phenyl-1H-1,3-benzodiazol-2-yl)imidazo[1,2-b]pyridazine-3-carboxamide] | – | < 0.1 µM | < 0.1 µM | < 1 µM
CCCNC(=O)c1ccc(C(=O)Nc2nc3c(OC)ccc(-c4ccccc4)c3[nH]2)cc1 [compound 293, N1-(4-methoxy-7-phenyl-1H-1,3-benzodiazol-2-yl)-N4-propylbenzene-1,4-dicarboxamide] | – | < 0.1 µM | < 0.1 µM | < 1 µM
COc1ccc(-c2ccccc2)c2[nH]c(NC(=O)c3ccc(C(=O)N4CCN(C)CC4)cc3)nc12 [compound 294, N-(4-methoxy-7-phenyl-1H-1,3-benzodiazol-2-yl)-4-(4-methylpiperazine-1-carbonyl)benzamide] | – | < 0.1 µM | < 0.01 µM | < 1 µM
COCCN(C)C(=O)c1ccc(C(=O)Nc2nc3c(OC)ccc(-c4ccccc4)c3[nH]2)cc1 [compound 295, N4-(4-methoxy-7-phenyl-1H-1,3-benzodiazol-2-yl)-N1-(2-methoxyethyl)-N1-methylbenzene-1,4-dicarboxamide] | – | < 0.1 µM | < 0.1 µM | < 1 µM
COc1ccc(-c2ccccc2)c2[nH]c(NC(=O)c3ccc(C(=O)N(C)CCN(C)C)cc3)nc12 [compound 296, N1-[2-(dimethylamino)ethyl]-N4-(4-methoxy-7-phenyl-1H-1,3-benzodiazo1-2-yl)-N1-methylbenzene-1,4-dicarboxamide] | – | < 0.1 µM | < 0.01 µM | < 1 µM
CCCN(C)C(=O)c1ccc(C(=O)Nc2nc3c(OC)ccc(-c4ccccc4)c3[nH]2)cc1 [compound 297, N4-(4-methoxy-7-phenyl-1H-1,3-benzodiazol-2-yl)-N1-methyl-N1-propylbenzene-1,4-dicarboxamide] | – | < 0.1 µM | < 0.1 µM | < 1 µM
COc1ccc(-c2ccccc2)c2[nH]c(NC(=O)c3ccc(C(=O)N4CCOCC4)cc3)nc12 [compound 298, N-(4-methoxy-7-phenyl-1H-1,3-benzodiazol-2-yl)-4-(morpholine-4-carbonyl)benzamide] | – | < 0.1 µM | < 0.01 µM | < 1 µM
COCCn1cc(C(=O)Nc2nc3c(-c4cccc5cc[nH]c45)ccc(OC)c3[nH]2)cn1 [compound 304, N-[4-(1H-indol-7-yl)-7-methoxy-1H-1,3-benzodiazol-2-yl]-1-(2-methoxyethyl)-1H-pyrazole-4-carboxamide] | – | < 0.1 µM | < 0.1 µM | < 1 µM
COc1ccc(-c2cccc3cc[nH]c23)c2nc(NC(=O)N3CCC(C)(O)CC3)[nH]c12 [compound 305, 4-hydroxy-N-[4-(1H-indol-7-yl)-7-methoxy-1H-1,3-benzodiazol-2-yl]-4-methylpiperidine-1-carboxamide] | – | < 0.1 µM | < 0.1 µM | > 1 µM
COc1ccc(-c2ccccc2)c2nc(NC(=O)N3CCC4(CCOCC4)C3)[nH]c12 [compound 310, N-(7-methoxy-4-phenyl-1H-1,3-benzodiazol-2-yl)-8-oxa-2-azaspiro[4.5]decane-2-carboxamide] | – | < 0.1 µM | < 0.1 µM | > 1 µM
COc1ccc(-c2ccccc2)c2nc(NC(=O)c3ccc(CN4CCCC4=O)cc3)[nH]c12 [compound 311, N-(7-methoxy-4-phenyl-1H-1,3-benzodiazol-2-yl)-4-[(2-oxopyrrolidin-1-yl)methyl]benzamide] | – | < 0.1 µM | < 0.01 µM | < 1 µM
COc1ccc(N2CCCOCC2)c2nc(NC(=O)c3ccc(C(=O)N(C)C)cc3)[nH]c12 [compound 313, N4-[7-methoxy-4-(1,4-oxazepan-4-yl)-1H-1,3-benzodiazol-2-yl]-N1,N1-dimethylbenzene-1,4-dicarboxamide] | – | < 0.01 µM | > 1 µM | > 1 µM
